# According to patent US11926645B2, “Compounds and methods for treatment of viral infections” (priority 2020, dated 2024):
# What was measured:
# [1] = test system: SARS-CoV-2 2019-nCoV/USA-WA1/2020; assay type: in vivo
# SARS-CoV-2 BZ/2021 P.1 = experiment: microbe, parasite or virus in culture; assay type: cell-based; conditions: Severe acute respiratory syndrome coronavirus 2, Vero C1008
# CES2 = molecular target: T1, CES2 (Homo sapiens, UniProt O00748); experiment: CES1/2 stability, CES2; assay type: in vitro ADME; conditions: CES2 Supersome preparation; Supersome preparations, CES 1.5 mg/ml, 2 μM substrate, pH 7.4, 37° C.; read-out: CES2 T1/2
# T1 construct: purchased
# T1 sequence (O00748 27-559): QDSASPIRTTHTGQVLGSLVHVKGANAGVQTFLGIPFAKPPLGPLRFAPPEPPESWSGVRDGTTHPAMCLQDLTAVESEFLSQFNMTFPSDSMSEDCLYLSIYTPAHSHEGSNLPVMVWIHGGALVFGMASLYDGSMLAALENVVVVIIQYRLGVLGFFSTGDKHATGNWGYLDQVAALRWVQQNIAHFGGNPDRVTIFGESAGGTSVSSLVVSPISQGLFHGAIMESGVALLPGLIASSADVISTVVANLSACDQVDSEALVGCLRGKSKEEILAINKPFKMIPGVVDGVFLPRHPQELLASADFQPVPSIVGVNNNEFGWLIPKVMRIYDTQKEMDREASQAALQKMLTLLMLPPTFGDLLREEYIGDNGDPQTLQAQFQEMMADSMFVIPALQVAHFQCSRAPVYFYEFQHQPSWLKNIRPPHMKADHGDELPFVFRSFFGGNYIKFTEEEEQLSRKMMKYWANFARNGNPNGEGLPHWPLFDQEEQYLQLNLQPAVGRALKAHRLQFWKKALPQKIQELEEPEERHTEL
# Experimental: Test compounds or positive control substrates (oseltamivir for CES1 enzymes or procaine for CES2) were incubated with individual Supersome preparations (final CES concentration 1.5 mg/ml) in 0.1 M potassium phosphate buffer (pH 7.4) at 37° C. Substrates were added to a final concentration of 2 μM to initiate the reaction. The final incubation volume was 250 μL. Aliquots were removed after incubation for 0, 10, 30, 60 and 120 min. The reactions were stopped by the addition of IS/Q. Following protein precipitation and centrifugation, 150 μL of supernatant was diluted with an equal volume of water prior to LC-MS analysis. For procaine 150 μL of supernatant was dried down and reconstituted with 250 μL water. All samples were analyzed by LC-MS and the PAR values were used for quantification.
# [2] = test system: RSV-Fluc (Respiratory Syncytial virus strain A2 containing the firefly luciferase reporter); experiment: microbe, parasite or virus in culture; assay type: cell-based; conditions: human respiratory syncytial virus, 72 h, NHBE cells, three days
# RSV strain A2 = experiment: RSV antiviral assay (Hep2), EC50-Hep2/B1-384; assay type: cell-based; conditions: human respiratory syncytial virus, HEp-2, 96 h; Hep2 cells, 4 days, Cell-Titer Glo
# in vitro = in vitro ADME, Human; conditions: human, s9, pH 7.4
# Experimental: Duplicate aliquots of test compound or positive control substrate (GS-7340) were added to S9 stock diluted with 100 mM phosphate buffered saline, pH 7.4, to obtain a protein concentration of 1.0 mg/mL. The S9 metabolic reactions were initiated by the addition of the substrates to the S9 reaction mixture to a final concentration of 2 μM. At 0, 10, 20, 30, 60 and 120 min, 25 μL aliquots of the reaction mixture were transferred to plates containing 225 μl of IS/Q solution. After quenching, the plates were centrifuged at 3000×g for 30 minutes, and 150 μL aliquots of each supernatant were diluted with 150 μL water. Aliquots (10 μL) of the diluted supernatant were analyzed on a Thermo Q-Exactive mass spectrometer as described below.
# Quantification of test compounds and controls was performed by analyte/internal standard peak area ratio (PAR) values measured on a Thermo Q-Exactive mass spectrometer coupled to a Dionex UltiMate 3000 HPLC with a Leap Technologies HTC PAL autosampler. The column used was a Thermo Hypersil GOLD (1.9 μm particle size, 2.1×50 mm). Mobile phase A consisted of 0.1% (v/v) formic acid in water. Mobile phase B consisted of 0.1% (v/v) formic acid in acetonitrile. Elution of analytes was achieved by a series of linear gradients of acetonitrile in water containing 0.1% (v/v) formic acid. The mass spectrometer was calibrated on a weekly basis and mass tolerance of 5 ppm was used.
# Plasma stability = conditions: human
# [3] = […], Compound 1 10 mg/kg and 3 mg/kg, EIDD-2801/molnupiravir 5 mg/kg
smiles,measurement,setting,value
"CC(C)C(=O)OC[C@H]1O[C@@](C#N)(c2ccc3c(N)ncnn23)[C@H](OC(=O)C(C)C)[C@@H]1OC(=O)C(C)C [Compound 1, (2R,3R,4R,5R)-2-(4-aminopyrrolo[2,1-f][1,2,4]triazin-7-yl)-2-cyano-5-((isobutyryloxy)methyl)tetrahydrofuran-3,4-diyl bis(2-methylpropanoate)]",Clinical signs versus vehicle animals,[1]; [3],No significant differences in clinical signs
same,Virus burden in the turbinates,[1]; [3],reduced burden in the turbinates
same,Shed virus load (nasal lavages) versus vehicle,"[1]; […], Compound 1 10 mg/kg and 3 mg/kg, EIDD-2801/molnupiravir 5 mg/kg, within 12 hours of treatment onset",lower in all treated animals than in the vehicle group
same,Viral RNA copies in nasal lavages and turbinates versus vehicle,"[1]; […], Compound 1 10 mg/kg, EIDD-2801/molnupiravir 5 mg/kg",statistically significant mean reduction
same,"Clinical signs (body temperature, weight gain)","[1]; in vivo, po, 20 mg/kg",only animals of the vehicle group showed elevated body temperature
same,Shed SARS-CoV-2 load in nasal lavages,"[1]; in vivo, po, 20 mg/kg",transiently detectable in lavages of only one ferret
same,"Viral RNA copy numbers in turbinates, difference between vehicle and treatment groups","[1]; in vivo, po, 20 mg/kg",three
same,Virus in nasal turbinates 4 days after infection,"[1]; in vivo, po, 20 mg/kg",undetectable
same,EC50,SARS-CoV-2 BZ/2021 P.1,220 nM
same,half-life at 2 μM,CES2,< 1 min
same,EC50,[2],389 nM
same,EC50,RSV strain A2,261 nM
same,half-life at 2 μM,in vitro,0.37 min
same,half-life at 2 μM,Plasma stability,5.5 min
